# In ChEMBL document CHEMBL1201862, “PubChem BioAssay data set” (2004):
#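 Grown in 96-well plates, cells were treated for 48 hours with each compound at five concentrations. Insufficient inhibition: endpoint recorded as highest concentration tested. GI50: concentration for 50% inhibition of growth.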 The source made the active and inactive calls. Rule as the data show it: active = GI50 up to about 1.1 µM and inactive = higher.
# Columns and labels:
# Test in all cases: NCI tumour cell line growth inhibition, 48 h
# A498 = tested on: A498
# A549 = tested on: A549
# CCRF-CEM = tested on: CCRF-CEM
# COLO 205 = tested on: COLO 205
# DLD-1 = tested on: DLD-1
# DMS-114 = tested on: DMS-114
# DMS-273 = tested on: DMS-273
# EKVX = tested on: EKVX
# HCC 2998 = tested on: HCC 2998
# HCT-116 = tested on: HCT-116
# HCT-15 = tested on: HCT-15
# HL-60 = tested on: HL-60
# HOP-18 = tested on: HOP-18
# HOP-62 = tested on: HOP-62
# HOP-92 = tested on: HOP-92
# HT-29 = tested on: HT-29
# IGROV-1 = tested on: IGROV-1
# K562 = tested on: K562
# KM-20L2 = tested on: KM-20L2
# KM12 = tested on: KM12
# LOX IMVI = tested on: LOX IMVI
# M19-MEL = tested on: M19-MEL
# MCF7 = tested on: MCF7
# MOLT-4 = tested on: MOLT-4
# Malme-3M = tested on: Malme-3M
# NCI-H226 = tested on: NCI-H226
# NCI-H23 = tested on: NCI-H23
# NCI-H460 = tested on: NCI-H460
# NCI-H522 = tested on: NCI-H522
# NCI/ADR-RES = tested on: NCI/ADR-RES
# OVCAR-3 = tested on: OVCAR-3
# OVCAR-4 = tested on: OVCAR-4
# OVCAR-5 = tested on: OVCAR-5
# OVCAR-8 = tested on: OVCAR-8
# RPMI-8226 = tested on: RPMI-8226
# RXF 393 = tested on: RXF 393
# SF-268 = tested on: SF-268
# SF-295 = tested on: SF-295
# SF-539 = tested on: SF-539
# SK-MEL-28 = tested on: SK-MEL-28
# SK-MEL-2 = tested on: SK-MEL-2
# SK-MEL-5 = tested on: SK-MEL-5
# SK-OV-3 = tested on: SK-OV-3
# SN12C = tested on: SN12C
# SNB-19 = tested on: SNB-19
# SNB-75 = tested on: SNB-75
# SNB-78 = tested on: SNB-78
# SW-620 = tested on: SW-620
# U-251 = tested on: U-251
# UACC-257 = tested on: UACC-257
# UACC-62 = tested on: UACC-62
# UO-31 = tested on: UO-31
# XF498 = tested on: XF498
# CAKI-1 = tested on: CAKI-1
smiles,measurement,setting,value
CSc1nc(NC2OC(CO)C(O)C(O)C2O)c(N)c(=O)[nH]1 (configuration not stated),GI50,A498,> 100 µM (inactive)
same,GI50,A549,> 100 µM (inactive)
same,GI50,CCRF-CEM,> 100 µM (inactive)
same,GI50,COLO 205,> 100 µM (inactive)
same,GI50,DLD-1,> 100 µM (inactive)
same,GI50,DMS-114,> 100 µM (inactive)
same,GI50,DMS-273,> 100 µM (inactive)
same,GI50,EKVX,> 100 µM (inactive)
same,GI50,HCC 2998,> 100 µM (inactive)
same,GI50,HCT-116,> 100 µM (inactive)
same,GI50,HCT-15,> 100 µM
same,GI50,HL-60,> 100 µM (inactive)
same,GI50,HOP-18,> 100 µM (inactive)
same,GI50,HOP-62,> 100 µM (inactive)
same,GI50,HOP-92,> 100 µM (inactive)
same,GI50,HT-29,> 100 µM (inactive)
same,GI50,IGROV-1,> 100 µM (inactive)
same,GI50,K562,> 100 µM (inactive)
same,GI50,KM-20L2,> 100 µM (inactive)
same,GI50,KM12,> 100 µM (inactive)
same,GI50,LOX IMVI,> 100 µM (inactive)
same,GI50,M19-MEL,> 100 µM (inactive)
same,GI50,MCF7,> 100 µM (inactive)
same,GI50,MOLT-4,> 100 µM (inactive)
same,GI50,Malme-3M,> 100 µM (inactive)
same,GI50,NCI-H226,> 100 µM (inactive)
same,GI50,NCI-H23,> 100 µM (inactive)
same,GI50,NCI-H460,> 100 µM (inactive)
same,GI50,NCI-H522,> 100 µM (inactive)
same,GI50,NCI/ADR-RES,> 100 µM (inactive)
same,GI50,OVCAR-3,> 100 µM (inactive)
same,GI50,OVCAR-4,> 100 µM (inactive)
same,GI50,OVCAR-5,> 100 µM (inactive)
same,GI50,OVCAR-8,> 100 µM (inactive)
same,GI50,RPMI-8226,> 100 µM (inactive)
same,GI50,RXF 393,> 100 µM (inactive)
same,GI50,SF-268,> 100 µM (inactive)
same,GI50,SF-295,> 100 µM (inactive)
same,GI50,SF-539,> 100 µM (inactive)
same,GI50,SK-MEL-28,> 100 µM (inactive)
same,GI50,SK-MEL-2,> 100 µM (inactive)
same,GI50,SK-MEL-5,> 100 µM (inactive)
same,GI50,SK-OV-3,> 100 µM (inactive)
same,GI50,SN12C,> 100 µM (inactive)
same,GI50,SNB-19,> 100 µM (inactive)
same,GI50,SNB-75,> 100 µM (inactive)
same,GI50,SNB-78,> 100 µM (inactive)
same,GI50,SW-620,> 100 µM (inactive)
same,GI50,U-251,> 100 µM (inactive)
same,GI50,UACC-257,> 100 µM (inactive)
same,GI50,UACC-62,> 100 µM (inactive)
same,GI50,UO-31,> 100 µM (inactive)
same,GI50,XF498,> 100 µM (inactive)
CC(=O)Oc1cc2c(cc1OC(C)=O)OCC(c1ccccc1)C2 (configuration not stated),GI50,A498,7.05 µM (inactive)
same,GI50,A549,13 µM (inactive)
same,GI50,CAKI-1,16.4 µM (inactive)
same,GI50,CCRF-CEM,4.4 µM (inactive)
same,GI50,COLO 205,18.1 µM (inactive)
same,GI50,DLD-1,9.31 µM (inactive)
same,GI50,DMS-114,6.81 µM (inactive)
same,GI50,DMS-273,34.2 µM (inactive)
same,GI50,EKVX,28.3 µM (inactive)
same,GI50,HCC 2998,29.1 µM (inactive)
same,GI50,HCT-116,27.6 µM (inactive)
same,GI50,HCT-15,13 µM
same,GI50,HL-60,3.5 µM (inactive)
same,GI50,HOP-18,29.9 µM (inactive)
same,GI50,HOP-62,19.1 µM (inactive)
same,GI50,HOP-92,9.23 µM (inactive)
same,GI50,HT-29,43.5 µM (inactive)
same,GI50,IGROV-1,33.8 µM (inactive)
same,GI50,K562,12.1 µM (inactive)
same,GI50,KM-20L2,34.7 µM (inactive)
same,GI50,KM12,25.8 µM (inactive)
same,GI50,LOX IMVI,13.5 µM (inactive)
same,GI50,M19-MEL,14.9 µM (inactive)
same,GI50,MCF7,32.5 µM (inactive)
same,GI50,MOLT-4,5.85 µM (inactive)
same,GI50,Malme-3M,16.1 µM (inactive)
same,GI50,NCI-H226,22.2 µM (inactive)
same,GI50,NCI-H23,32.2 µM (inactive)
same,GI50,NCI-H460,20.7 µM (inactive)
same,GI50,NCI-H522,2.4 µM (inactive)
same,GI50,NCI/ADR-RES,31.3 µM (inactive)
same,GI50,OVCAR-3,22.6 µM (inactive)
same,GI50,OVCAR-4,24 µM (inactive)
same,GI50,OVCAR-5,33.3 µM (inactive)
same,GI50,OVCAR-8,16.9 µM (inactive)
same,GI50,RPMI-8226,8.39 µM (inactive)
same,GI50,RXF 393,14.4 µM (inactive)
same,GI50,SF-268,14.7 µM (inactive)
same,GI50,SF-295,16.4 µM (inactive)
same,GI50,SF-539,25.7 µM (inactive)
same,GI50,SK-MEL-28,31 µM (inactive)
same,GI50,SK-MEL-2,27.4 µM (inactive)
same,GI50,SK-MEL-5,17.3 µM (inactive)
same,GI50,SK-OV-3,40.7 µM (inactive)
same,GI50,SN12C,26.4 µM (inactive)
same,GI50,SNB-19,15 µM (inactive)
same,GI50,SNB-75,8.18 µM (inactive)
same,GI50,SNB-78,39.2 µM (inactive)
same,GI50,SW-620,6.5 µM (inactive)
same,GI50,U-251,7.6 µM (inactive)
same,GI50,UACC-257,14.1 µM (inactive)
same,GI50,UACC-62,19.2 µM (inactive)
same,GI50,UO-31,30.2 µM (inactive)
same,GI50,XF498,12.4 µM (inactive)
